“Also recorded” adds a separate entry of the source.
Assays:
[1] = tested on: rats with infraorbital nerve injury; test: Mechanical sensitivity (von Frey filaments) after photochemically-induced ischemic infraorbital nerve (IoN) injury, model of trigeminal neuropathic pain; assay type: in vivo, rat; details: for effect on mechanical hypersensitivity (response threshold to von Frey stimulation): 14-16 days after IoN injury
Experimental: (§1) Male and female Sprague-Dawley rats (Möllegård, Denmark) weighing 200-250 g at the start of the experiments were used. All experimental procedures were approved by the local research ethics committee.
Rats were anesthetized with chloral hydrate. The left IoN was exposed via a longitudinal incision at the maxillary region and all branches of the nerve were carefully lifted on a glass hook. A piece of aluminium foil was placed under the nerve and the nerve was irradiated for 6 min with the tunable argon ion laser. The rat was positioned so that the laser beam was perpendicular and transversal to the exposed nerve. Immediately before irradiation erythrosin B was injected i.v. and the injection was repeated after 5 min. After irradiation the wound was closed in layers.
Mechanical sensitivity was tested with a series of von Frey filaments. The rat was gently held by the experimenter and the von Frey filaments were applied in ascending order to the IoN territory on the hairy skin of the vibrissal pad. The stimulation with each filament consisted of four consecutive applications at 1/s on the injured and then on the contralateral side. […] The rats were habituated to the testing procedure for several days before nerve injury and baseline response was determined in two sessions. Testing was carried out 3, 7, 10 and 14 d after the injury to assess the development of mechanical hypersensitivity. The effect of SPM 927 (7.5, 15, and 30 mg/kg) was tested 14-16 days after injury when mechanical hypersensitivity was well established. Measurements were taken 30 min, 1 h, 2 h, and 3 h following drug injection.
(§2) SPM 927 was dissolved in physiological saline and injected intraperitoneally. The data are expressed as median±M.A.D. and analysed with Wilcoxon signed-ranks test.

[2] = tested on: rats with infraorbital nerve injury; test: Motor deficits observed in rats with IoN injury after drug injection; assay type: in vivo, rat; details: i.p., doses 7.5-30 mg/kg
Experimental: as §1, §2

## COC[C@@H](NC(C)=O)C(=O)NCc1ccccc1 [SPM 927, (R)-2-acetamide-N-benzyl-3-methoxypropionamide]
[1]; female rats, 7.5 mg/kg i.p.
  effect on mechanical hypersensitivity (response threshold to von Frey stimulation): no effect
[1]; female rats, 15 mg/kg i.p.
  effect on mechanical hypersensitivity (response threshold to von Frey stimulation): significantly and markedly alleviated mechanical hypersensitivity
[1]; female rats, 20 mg/kg i.p.
  effect on mechanical hypersensitivity (response threshold to von Frey stimulation): significantly and markedly alleviated mechanical hypersensitivity
[1]; male rats, 15 mg/kg i.p.
  effect on mechanical hypersensitivity (response threshold to von Frey stimulation): did not alleviate mechanical hypersensitivity
[1]; male rats, 20 mg/kg i.p.
  effect on mechanical hypersensitivity (response threshold to von Frey stimulation): did not alleviate mechanical hypersensitivity
[1]; male rats, 30 mg/kg i.p.
  effect on mechanical hypersensitivity (response threshold to von Frey stimulation): significantly alleviated mechanical hypersensitivity for 3 h
[1]; systemic, single dose administration
  overall analgesic or/and anti-allodynic effect in rat model of trigeminal neuropathic pain: dose-dependent analgesic or/and anti-allodynic effect; also recorded: significant efficacy in reducing mechanical hypersensitivity
[2]
  motor deficits: did not cause motor deficits
